According to patent US8288389B2, “Piperazine derivative having affinity for the histamine H3 receptor” (Glaxo Group Limited, priority 2007, dated 2012):
Counter-ions that a name gives are not always drawn.

Key:
[1] = Preliminary HCl-salt-formation and crystallisation experiments (relative stability of crystal forms); type: physicochemical; settings: compared with crystalline Form 1
Text: Crystalline Form 1 (or a predominance of crystalline Form 1) is often formed initially depending on the conditions, but, depending on the conditions (such as the type of solvent and the solubility of crystalline Form 1 in it, and/or the temperature and/or temperature time course, and/or the contact time of the crystalline Form 1 with the solvent), the crystalline Form 1 can then often convert to crystalline Form 2 to a greater or lesser extent when in contact with a suitable solvent i.e. a solvent suitable for converting crystalline Form 1 to crystalline Form 2.

male Sprague Dawley rats = experiment: Toxicity Study 1: 7-day oral repeat-dose study in male Sprague Dawley rats; type: in vivo, rat; settings: for tolerability: male rats
Description: Three male rats were added at each non-zero dose level for toxicokinetic evaluation. All doses and concentrations, including analyte concentration in plasma, are expressed in terms of the parent “free base” compound.
The following endpoints/parameters were evaluated for toxicology animals: clinical observations, body weights, food consumption measurements, selected haematology and selected clinical chemistry results, liver weights, selected macroscopic and microscopic observations, and selected hepatic gene expression analysis. Toxicokinetic evaluation (serial profiling) was performed on samples collected from satellite animals on Days 1 and 7. For male rats dosed at 30 or 100 mg/kg/day, histopathology observations carried out were on kidneys, mesentery and mandibular lymph node only. For male rats dosed at 0 mg/kg/day (control) and 300 mg/kg/day, histopathology observations carried out were on adrenals, brain, heart, kidneys, liver, lung, mandibular lymph node, mesentery, stomach, testes, and thymus (except that mandibular lymph node observations were for 0 mg/kg/day dosed rats only).

[2] = Plasma clearance in the pig-PET study; type: in vivo, Yorkshire-Landrace pig; settings: 50 micrograms/kg i.v.
Sprague Dawley rats = experiment: Toxicity Study 2: 7-day oral dose range-finding study in Sprague Dawley rats; type: in vivo, rat
Description: Three male rats and three female rats were added at 600 mg/kg/day and 3 female rats were added at 300 mg/kg/day for toxicokinetic evaluation.
The following endpoints/parameters were evaluated for toxicology animals: clinical observations, body weights, food consumption, selected haematology, selected clinical chemistry, liver weights, and selected macroscopic and microscopic observations. Toxicokinetic evaluation was performed on samples collected on Day 1 (300 and 600 mg/kg/day dosing) and Day 7 (300 mg/kg/day dosing only).

H3 receptor = H3 receptor (Sus scrofa, UniProt A0A287B9V8); experiment: Pig-PET study with [11C]GSK189254: pig brain H3 receptor occupancy over time and kon-koff limited model; settings: 50 micrograms/kg i.v.; for koff: iv
H3 receptor, sequence (A0A287B9V8 1-448): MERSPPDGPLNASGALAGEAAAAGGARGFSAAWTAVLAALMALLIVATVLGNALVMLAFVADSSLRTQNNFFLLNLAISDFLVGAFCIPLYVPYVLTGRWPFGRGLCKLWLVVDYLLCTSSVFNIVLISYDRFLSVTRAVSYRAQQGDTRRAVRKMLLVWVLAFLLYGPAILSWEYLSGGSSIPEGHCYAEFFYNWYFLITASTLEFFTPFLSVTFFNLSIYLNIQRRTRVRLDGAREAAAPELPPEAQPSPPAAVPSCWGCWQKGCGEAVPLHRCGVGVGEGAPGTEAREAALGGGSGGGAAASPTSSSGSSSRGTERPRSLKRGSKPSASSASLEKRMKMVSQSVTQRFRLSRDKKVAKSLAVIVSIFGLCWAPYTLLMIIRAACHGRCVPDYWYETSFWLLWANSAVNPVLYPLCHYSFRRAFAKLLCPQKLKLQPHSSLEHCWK

histamine H3 receptor = target: T1, histamine H3 receptor (Rattus norvegicus, UniProt Q9QYN8); settings: following oral administration to the rat; cited from earlier work
T1 construct: from tissue; host or cells: rat cerebral cortex, crude homogenate
T1 sequence (Q9QYN8 whole entry): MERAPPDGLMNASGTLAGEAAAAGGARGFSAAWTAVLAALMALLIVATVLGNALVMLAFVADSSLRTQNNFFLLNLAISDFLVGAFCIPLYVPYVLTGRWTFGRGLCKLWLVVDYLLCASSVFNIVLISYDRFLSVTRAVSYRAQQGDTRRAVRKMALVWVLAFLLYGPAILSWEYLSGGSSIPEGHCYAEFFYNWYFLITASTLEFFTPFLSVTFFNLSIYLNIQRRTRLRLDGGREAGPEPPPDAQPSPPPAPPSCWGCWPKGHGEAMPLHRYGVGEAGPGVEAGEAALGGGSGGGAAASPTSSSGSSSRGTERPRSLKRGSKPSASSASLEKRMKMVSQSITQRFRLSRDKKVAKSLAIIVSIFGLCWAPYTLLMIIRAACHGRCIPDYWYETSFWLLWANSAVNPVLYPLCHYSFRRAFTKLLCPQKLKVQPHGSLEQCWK

rats = settings: certain oral doses; passive avoidance, water maze, object recognition, attentional set shift; cited from earlier work
rodent models = settings: five choice task, object recognition, elevated plus maze, acquisition of novel task, passive avoidance; cited from earlier work
[3] = average model: derived from average plasma data and average occupancy

For `CC(C)N1CCN(C(=O)c2ccc(OC3CCOCC3)cc2)CC1` [Example 3], the “thermodynamic stability of the crystal form” value [1] was “more thermodynamically stable than crystalline Form 1”.

With `CC(C)N1CCN(C(=O)c2ccc(OC3CCOCC3)cc2)CC1.Cl` [Example E1] the tolerability (male Sprague Dawley rats; 300 mg/kg/day oral for 7 days (measured as the free base)) was “moderately well tolerated”, the tolerability (male Sprague Dawley rats; 30 or 100 mg/kg/day oral for 7 days (measured as the free base)) was “well tolerated” and the food consumption (male Sprague Dawley rats; rat, in vivo, po, 300 mg/kg/day) was “ca. 0.80 ×pretreatment”. The Plasma clearance ([2]; pig 1 (individual study)) was 2.9 L/h, the tolerability (Sprague Dawley rats; female rats, 300 mg/kg/day oral for 7 days (measured as the free base)) was “moderately well tolerated” and the “tolerability (preliminary conclusion from Toxicity Studies 1 and 2)” value (Sprague Dawley rats; male and female rats, 7 days oral repeat dosing at doses of up to 300 mg/kg/day) was “well tolerated or moderately well tolerated”. The koff (H3 receptor; PIG1, pig, pig 1 (individual study), estimated model parameter) was 6.33e-05 s⁻¹, the “Kd (koff/kon)” value (H3 receptor; [3]) was 3.37 ng/mL and the “Kd (koff/kon)” value (H3 receptor; mean of the individually estimated parameters, n=3 pigs) was 3.35 ng/mL. For the same compound, the “reduction in pig brain H3 receptor occupancy over time, as compared to salt B” value (H3 receptor; n=3 pigs, preliminary measurements) was “generally faster reduction in pig brain H3 receptor occupancy”, the koff (H3 receptor; pig, average model: derived from average plasma data and average occupancy) was 0.000152 s⁻¹ and the koff (H3 receptor; pig, mean of the individually estimated parameters, n=3 pigs) was 0.000243 s⁻¹. The koff (H3 receptor; pig, pig 2 (individual study), estimated model parameter) was 0.00019 s⁻¹ and the koff (H3 receptor; pig, pig 3 (individual study), estimated model parameter) was 0.000477 s⁻¹.

In the case of `CNC(=O)c1ccc(Oc2ccc3c(c2)CCN(C2CCC2)CC3)nc1` [GSK189254], the “[3]R-α-methylhistamine ex vivo binding in the rat cortex” value (histamine H3 receptor) is given as “inhibited” and the “performance of rats in cognition paradigms” value (rats) is given as “improved performance”.

For `CC(C)(C)CCC#C[C@@H]1C[C@H]1c1c[nH]cn1` [GT-2331], the “effect in rodent cognition models” value (rodent models) is given as “cognitive enhancing properties”.

For `O=C(c1ccc(OCCCc2cnc[nH]2)cc1)C1CC1` [ciproxifan], the “effect in rodent cognition models” value (rodent models) is given as “cognitive enhancing properties”.

In the case of `NC(=NCc1ccc(Cl)cc1)SCCCc1cnc[nH]1` [clobenpropit], the “effect in rodent cognition models” value (rodent models) is listed as “cognitive enhancing properties”.

For `CC(C)N1CCCN(C(=O)c2ccc(OC3CCOCC3)cc2)CC1` [salt B, reference compound], the Plasma clearance ([2]; average model: derived from average plasma data) was 2.9 L/h and the “Kd (koff/kon)” value (H3 receptor; [3]) was 1.80 ng/mL.

In the case of `S=C(NC1CCCCC1)N1CCC(c2cnc[nH]2)CC1` [thioperamide], the “effect in rodent cognition models” value (rodent models) is given as “cognitive enhancing properties”.
